Here are results for 19 compounds from US10160750B2, “Diamide macrocycles as factor XIa inhibitors” (BRISTOL-MYERS SQUIBB COMPANY, priority 2015, dated 2018).

Where only a bound is given, the exact number is not on record here.

Assay [1] concerns the target T1, purified human Factor XIa (Homo sapiens, UniProt P03951).
T1 construct: purchased Haematologic Technologies
As to the kind of experiment: Factor XIa enzyme inhibition assay (chromogenic substrate S-2366). In kind it is biochemical. To be noted: substrate S-2366, pH 7.4. As to the method:
(§1) The effectiveness of compounds of the present invention as inhibitors of the coagulation Factors XIa, VIIa, IXa, Xa, XIIa, plasma kallikrein or thrombin, can be determined using a relevant purified serine protease, respectively, and an appropriate synthetic substrate. The rate of hydrolysis of the chromogenic or fluorogenic substrate by the relevant serine protease was measured both in the absence and presence of compounds of the present invention. […] A decrease in the rate of absorbance or fluorescence change in the presence of inhibitor is indicative of enzyme inhibition. Such methods are known to one skilled in the art. The results of this assay are expressed as the inhibitory constant, Ki.
Factor XIa determinations were made in 50 mM HEPES buffer at pH 7.4 containing 145 mM NaCl, 5 mM KCl, and 0.1% PEG 8000 (polyethylene glycol; JT Baker or Fisher Scientific). Determinations were made using purified human Factor XIa at a final concentration of 25-200 pM (Haematologic Technologies) and the synthetic substrate S-2366 (pyroGlu-Pro-Arg-pNA; Chromogenix or AnaSpec) at a concentration of 0.0002-0.001 M.
(§2) The Michaelis constant, Km, for substrate hydrolysis by each protease, was determined at 25° C. or 37° C. in the absence of inhibitor. Values of Ki were determined by allowing the protease to react with the substrate in the presence of the inhibitor. Reactions were allowed to go for periods of 20-180 minutes (depending on the protease) and the velocities (rate of absorbance or fluorescence change versus time) were measured. The following relationships were used to calculate Ki values: (Vmax*S)/(Km+S); (vo−vs)/vs=I/(Ki*(1+S/Km)) for a competitive inhibitor with one binding site; or vs/vo=A+((B−A)/(1+(IC50/(I))^n)); and Ki=IC50/(1+S/Km) for a competitive inhibitor where: […]

For assay [2], the target named is T2, purified human plasma kallikrein (Homo sapiens, UniProt P03952).
T2 construct: Plasma prekallikrein is a zymogen of a trypsin-like serine protease; purchased Enzyme Research Laboratories
T2 sequence (P03952 391-638 limits assumed): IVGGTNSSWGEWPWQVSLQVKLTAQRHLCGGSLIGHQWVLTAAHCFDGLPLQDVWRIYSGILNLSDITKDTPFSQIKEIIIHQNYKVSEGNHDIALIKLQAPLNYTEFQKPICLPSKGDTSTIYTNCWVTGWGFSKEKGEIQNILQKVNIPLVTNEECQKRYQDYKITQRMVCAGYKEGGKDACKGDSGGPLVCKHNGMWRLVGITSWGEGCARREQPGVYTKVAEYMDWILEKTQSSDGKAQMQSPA
T2 sequence (P03952 20-390 partner limits assumed): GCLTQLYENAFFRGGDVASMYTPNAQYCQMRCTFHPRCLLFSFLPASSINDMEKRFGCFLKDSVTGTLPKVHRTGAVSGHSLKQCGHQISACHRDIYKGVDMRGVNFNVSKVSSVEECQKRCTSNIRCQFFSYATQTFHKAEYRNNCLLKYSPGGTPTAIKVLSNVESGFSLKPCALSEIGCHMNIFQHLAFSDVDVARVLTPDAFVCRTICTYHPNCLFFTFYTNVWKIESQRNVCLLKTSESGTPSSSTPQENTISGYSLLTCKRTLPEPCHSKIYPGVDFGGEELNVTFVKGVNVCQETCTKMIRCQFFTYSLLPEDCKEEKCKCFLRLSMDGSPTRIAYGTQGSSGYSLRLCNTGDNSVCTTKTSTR
Put plainly: Plasma kallikrein enzyme inhibition assay (chromogenic substrate S-2302). In kind it is biochemical. To be noted: substrate S-2302, pH 7.5. The procedure:
as §1
Plasma kallikrein determinations were made in 0.1 M sodium phosphate buffer at a pH of 7.5 containing 0.1-0.2 M sodium chloride and 0.5% PEG 8000. Determinations were made using purified human plasma kallikrein (Enzyme Research Laboratories) at a final assay concentration of 200 pM and the synthetic substrate S-2302 (H-(D)-Pro-Phe-Arg-pNA; Chromogenix) at a concentration of 0.00008-0.0004 M.
as §2

T1 sequence (P03951 388-625 limits assumed): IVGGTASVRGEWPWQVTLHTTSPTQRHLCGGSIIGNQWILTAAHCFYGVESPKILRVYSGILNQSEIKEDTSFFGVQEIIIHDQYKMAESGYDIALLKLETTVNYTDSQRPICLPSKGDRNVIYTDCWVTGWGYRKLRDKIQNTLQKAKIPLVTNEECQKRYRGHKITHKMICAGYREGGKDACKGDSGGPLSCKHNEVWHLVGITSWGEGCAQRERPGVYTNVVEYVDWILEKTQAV
T1 sequence (P03951 19-387 partner limits assumed): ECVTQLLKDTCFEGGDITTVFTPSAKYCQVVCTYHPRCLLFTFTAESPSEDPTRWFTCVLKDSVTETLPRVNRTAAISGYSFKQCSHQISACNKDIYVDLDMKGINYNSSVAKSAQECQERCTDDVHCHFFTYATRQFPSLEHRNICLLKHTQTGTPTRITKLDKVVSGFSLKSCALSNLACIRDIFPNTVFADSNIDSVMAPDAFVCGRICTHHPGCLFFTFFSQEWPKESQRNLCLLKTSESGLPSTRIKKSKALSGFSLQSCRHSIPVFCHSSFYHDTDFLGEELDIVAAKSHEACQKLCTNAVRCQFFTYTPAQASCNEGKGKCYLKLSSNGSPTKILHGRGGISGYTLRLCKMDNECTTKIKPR

With `CC1NC(=O)[C@@H](N2CCC(c3cc(Cl)ccc3-n3cc(C(F)(F)F)nn3)=CC2=O)CCC[C@@H](C)C(=O)Nc2ccccc21` (single isomer, unassigned; diastereomer a) [Example 21], the values for the Ki in assay [1] and in assay [2] were 93 nM and 2830 nM, respectively.
As to `CC1NC(=O)[C@@H](N2CCC(c3cc(Cl)ccc3-n3cc(C(F)(F)F)nn3)=CC2=O)CCC[C@@H](C)C(=O)Nc2ccccc21` (single isomer, unassigned; diastereomer b) [Example 22], the inhibition constant Ki – broadly, a dissociation constant, usually derived from enzyme kinetics or from competition with a known ligand – in assay [1] is 3680 nM; in assay [2], greater than 13000 nM.
On the same counts, the results for `C[C@@H]1CCC[C@H](n2cnc(-c3cc(Cl)ccc3-n3cc(C(F)(F)F)nn3)cc2=O)C(=O)NCc2ccccc2NC1=O` [Example 11, (3R,7S)-7-(4-(5-Chloro-2-(4-(trifluoromethyl)-1H-1,2,3-triazol-1-yl)phenyl)-6-oxopyrimidin-1(6H)-yl)-3-methyl-4,5,6,7,9,10-hexahydrobenzo[b][1,5]-diazacyclododecine-2,8(1H, 3H)-dione] are 18.7 nM and 3380 nM.
On to `C[C@@H]1CCC[C@H](n2cnc(-c3c(-n4cc(Cl)nn4)ccc(Cl)c3F)cc2=O)C(=O)NCc2ccccc2NC1=O` [Example 12, (3R,7S)-7-(4-(3-Chloro-6-(4-chloro-1H-1,2,3-triazol-1-yl)-2-fluorophenyl)-6-oxopyrimidin-1(6H)-yl)-3-methyl-4,5,6,7,9,10-hexahydrobenzo[b][1,5]diazacyclo-dodecine-2,8(1H,3H)-dione], for which the Ki stood at 2 nM in assay [1] and 179 nM in assay [2].
On the same counts, the results for `C[C@@H]1CCC[C@H](n2cnc(-c3cc(Cl)ccc3-n3cc(Cl)nn3)cc2=O)C(=O)NCc2ccccc2NC1=O` [Example 13, (3R,7S)-7-(4-(5-Chloro-2-(4-chloro-1H-1,2,3-triazol-1-yl)phenyl)-6-oxopyrimidin-1(6H)-yl)-3-methyl-4,5,6,7,9,10-hexahydrobenzo[b][1,5]diazacyclo-dodecine-2,8(1H,3H)-dione] are 8.5 nM and 1230 nM.
On the same counts, the results for `C[C@@H]1CCC[C@H](n2cnc(-c3c(-n4cc(C(F)(F)F)nn4)ccc(Cl)c3F)cc2=O)C(=O)NCc2ccccc2NC1=O` [Example 14, (3R,7S)-7-(4-(3-Chloro-2-fluoro-6-(4-(trifluoromethyl)-1H-1,2,3-triazol-1-yl)phenyl)-6-oxopyrimidin-1(6H)-yl)-3-methyl-4,5,6,7,9,10-hexahydrobenzo[b][1,5]-diazacyclododecine-2,8(1H,3H)-dione] are 4.3 nM and 733 nM.
On to `C[C@@H]1CCC[C@H](n2cnc(-c3cc(Cl)ccc3-n3cc(C(F)F)nn3)cc2=O)C(=O)NCc2ccccc2NC1=O` [Example 15, (3R,7S)-7-(4-(5-Chloro-2-(4-(difluoromethyl)-1H-1,2,3-triazol-1-yl)phenyl)-6-oxopyrimidin-1(6H)-yl)-3-methyl-4,5,6,7,9,10-hexahydrobenzo[b][1,5]diazacyclo-dodecine-2,8(1H, 3H)-dione], for which the Ki in assay [1] came out at 34.8 nM; in assay [2], 3360 nM.
The like results for `C[C@@H]1CCC[C@H](N2CCC(c3cc(Cl)ccc3-n3cc(Cl)nn3)=CC2=O)C(=O)NCc2ccccc2NC1=O` [Example 16, (3R,7S)-7-(4-(5-Chloro-2-(4-chloro-H-1,2,3-triazol-1-yl)phenyl)-2-oxo-5,6-dihydropyridin-1(2H)-yl)-3-methyl-4,5,6,7,9,10-hexahydrobenzo[b][1,5]diazacyclododecine-2,8(1H, 3H)-dione] were, in that order, 4 nM and 60.7 nM.
With `C[C@@H]1CCC[C@H](N2CCC(c3c(F)ccc(Cl)c3F)=CC2=O)C(=O)NCc2ccccc2NC1=O` [Example 17, (3R,7S)-7-(4-(3-Chloro-2,6-difluorophenyl)-2-oxo-56-dihydropyridin-1(2H)-yl)-3-methy 1-4,5,6,7,9,10-hexahydrobenzo[b][1,5]diazacyclododecine-2,8(1H,3H)-dione], the inhibitory constant (Ki) in assay [1] stood at 112 nM; in assay [2], 558 nM.
In the case of `C[C@@H]1CCC[C@H](N2CCC(c3cc(Cl)ccc3-n3cc(C(F)(F)F)nn3)=CC2=O)C(=O)NCc2ccccc2NC1=O` [Example 18], the Ki in assay [1] came out at 3.1 nM; in assay [2], 103 nM.
Consider `C[C@@H]1CCC[C@H](n2ccc(-c3cc(Cl)ccc3-n3cc(Cl)nn3)cc2=O)C(=O)NCc2ccccc2NC1=O` [Example 18], for which the Ki was found to be 10.1 nM in assay [1] and 259 nM in assay [2].
The like results for `C[C@@H]1CCC[C@H](n2cnc(-c3cc(Cl)ccc3-n3cc(C(F)(F)F)nn3)cc2=O)C(=O)NCc2cc(F)ccc2NC1=O` [Example 19, (3R,7S)-7-(4-(5-Chloro-2-(4-(trifluoromethyl)-1H-1,2,3-triazol-1-yl)phenyl)-6-oxopyrimidin-1(6H)-yl)-12-fluoro-3-methyl-4,5,6,7,9,10-hexahydrobenzo[b][1,5]diazacyclododecine-2,8(1H,3H)-dione] were, in that order, 18.7 nM and no less than 13000 nM.
The like results for `C[C@@H]1CCC[C@H](N2CCC(c3cc(Cl)ccc3-n3cc(C(F)(F)F)nn3)=CC2=O)C(=O)NCc2cc(F)ccc2NC1=O` [Example 20, (3R,7S)-7-(4-(5-Chloro-2-(4-(trifluoromethyl)-1H-1,2,3-triazol-1-yl)phenyl)-2-oxo-5,6-dihydropyridin-1(2H)-yl)-12-fluoro-3-methyl-4,5,6,7,9,10-hexahydrobenzo[b][1,5]diazacyclododecine-2,8(1H,3H)-dione] were, in that order, 7 nM and 268 nM.
The like results for `C[C@@H]1CCC[C@H](NC(=O)c2cn(-c3cccc(Cl)c3F)nn2)C(=O)NCc2ccccc2NC1=O` [Example 23, 1-(3-chloro-2-fluorophenyl)-N-((3R,7S)-3-methyl-2,8-dioxo-1,2,3,4,5,6,7,8,9,10-decahydrobenzo[b][1,5]diazacyclododecin-7-yl)-1H-1,2,3-triazole-4-carboxamide] were, in that order, 8730 nM and no less than 13000 nM.
Regarding `Cc1c(C(=O)N[C@H]2CCC[C@@H](C)C(=O)Nc3ccccc3CNC2=O)ncn1-c1cccc(Cl)c1F` [Example 24, 1-(3-chloro-2-fluorophenyl)-5-methyl-N-((3R,7S)-3-methyl-2,8-dioxo-1,2,3,4,5,6,7,8,9,10-decahydrobenzo[b][1,5]diazacyclododecin-7-yl)-1H-imidazole-4-carboxamide], the Ki in assay [1] was determined as 7410 nM; in assay [2], 4360 nM.
On the same counts, the results for `O=C1CCCCC[C@H](NC(=O)c2cn(-c3cccc(Cl)c3F)nn2)C(=O)Nc2ccccc2N1` [Example 25, (S)-1-(3-chloro-2-fluorophenyl)-N-(2,9-dioxo-1,2,3,4,5,6,7,8,9,10-decahydrobenzo[b][1,4]diazacyclododecin-3-yl)-1H-1,2,3-triazole-4-carboxamide] are 6000 nM and greater than 13000 nM.
On to `Cc1c(C(=O)N[C@H]2CCCCCC(=O)Nc3cc(C(=O)O)ccc3NC2=O)cnn1-c1cccc(Cl)c1F` [Example 26, (S)-3-(1-(3-chloro-2-fluorophenyl)-5-methyl-1H-pyrazole-4-carboxamido)-2,9-dioxo-1,2,3,4,5,6,7,8,9,10-decahydrobenzo[b][1,4]diazacyclododecine-12-carboxylic acid], for which the figures for the Ki in assay [1] and in assay [2] were 1740 nM and 765 nM, respectively.
As for `COC(=O)c1ccc2c(c1)NC(=O)CCCCC[C@H](n1cnc(-c3cc(Cl)ccc3-n3cc(C(F)(F)F)nn3)cc1=O)C(=O)N2` [Example 27, methyl (S)-3-(4-(5-chloro-2-(4-(trifluoromethyl)-1H-1,2,3-triazol-1-yl)phenyl)-6-oxopyrimidin-1(6H)-yl)-2,9-dioxo-1,2,3,4,5,6,7,8,9,10-decahydrobenzo[b][1,4]diazacyclododecine-12-carboxylate], the figures for the Ki in assay [1] and in assay [2] were 561 nM and greater than 13000 nM, respectively.
The like results for `O=C1CCCCC[C@H](n2cnc(-c3cc(Cl)ccc3-n3cc(C(F)(F)F)nn3)cc2=O)C(=O)Nc2ccc(C(=O)O)cc2N1` [Example 28, (S)-3-(4-(5-chloro-2-(4-(trifluoromethyl)-1H-1,2,3-triazol-1-yl)phenyl)-6-oxopyrimidin-1(6H)-yl)-2,9-dioxo-1,2,3,4,5,6,7,8,9,10-decahydrobenzo[b][1,4]diazacyclododecine-12-carboxylic acid] were, in that order, 173 nM and 11600 nM.
